Patent US5262411A, “Isocephem derivatives, and antimicrobial composition containing the derivatives” (Otsuka Pharmaceutical Co., Ltd., priority 1989, dated 1993)
In brackets after ≈: the same amount, converted by molar mass. Read-outs that look alike come from different tables or passages of the source.

Legend:
Assay type in all cases: cell-based
K. pneumoniae NCTC-9632 = assay: MIC against K. pneumoniae NCTC-9632 by the plate diluted method; details: Klebsiella pneumoniae, NCTC9632; K. pneumoniae NCTC-9632; 1×10^6 cells/ml; read-out: MIC
Experimental: (§1) In order to investigate the in vitro activity of the test compounds against various bacteria, the minimal inhibitory concentration (MIC) values were determined by the plate diluted method (See CHEMOTHERAPY, 22, 1126-1128, 1974.)
(§2) Each strain was adjusted to 1×10^6 cells/ml (O.D. 600 mμ, 0.07 to 0.16).

M. moganii IIDkono = assay: MIC against M. moganii IIDkono by the plate diluted method
Experimental: as §1, §2

E. coli No. 29 = assay: MIC against E. coli No. 29 by the plate diluted method; details: Escherichia coli, 1×10^6 cells/ml
Experimental: as §1, §2

S. marcescens IFO 12648 = assay: MIC against S. marcescens IFO 12648 by the plate diluted method; details: Serratia marcescens, IFO12648; S. marcescens IFO 12648; 1×10^6 cells/ml; read-out: MIC
Experimental: as §1, §2

S. aureaus FDA-209P = assay: MIC against S. aureaus FDA-209P by the plate diluted method; details: Staphylococcus aureus, FDA209P
Experimental: as §1, §2

P. aeruginosa E-2 = assay: MIC against P. aeruginosa E-2 by the plate diluted method; details: Pseudomonas aeruginosa, E2; P. aeruginosa E-2; 1×10^6 cells/ml; read-out: MIC
Experimental: as §1, §2

P. aeruginosa ATCC-10145 = assay: MIC against P. aeruginosa ATCC-10145 by the plate diluted method; details: Pseudomonas aeruginosa, ATCC10145; P. aeruginosa ATCC-10145; 1×10^6 cells/ml; read-out: MIC
Experimental: as §1, §2

A. calcoaceticus Ac-54 = assay: MIC against A. calcoaceticus Ac-54 by the plate diluted method; details: Acinetobacter calcoaceticus, AC54; A. calcoaceticus Ac-54; 1×10^6 cells/ml; read-out: MIC
Experimental: as §1, §2

[1] = S. aureaus FDA-209P, 1×10^6 cells/ml, read-out: MIC
[2] = M. moganii IIDkono, 1×10^6 cells/ml, read-out: MIC

Row | MIC (S. aureaus FDA-209P; [1]) [mg/L] | MIC (M. moganii IIDkono; [2]) [mg/L] | SMILES | MIC (K. pneumoniae NCTC-9632) [mg/L] | MIC (M. moganii IIDkono) [mg/L] | MIC (E. coli No. 29) [mg/L] | MIC (S. marcescens IFO 12648) [mg/L] | MIC (P. aeruginosa E-2) [mg/L] | MIC (P. aeruginosa ATCC-10145) [mg/L] | MIC (A. calcoaceticus Ac-54) [mg/L] | MIC (S. aureaus FDA-209P) [mg/L]
1 | 12.5 (≈ 19.6 µM) | 0.1 (≈ 0.157 µM) | Nc1nc(/C(=N/OCc2cc(=O)c(O)cn2O)C(=O)N[C@@H]2C(=O)N3C(C(=O)O)=C(CSc4nncs4)SC[C@H]23)cs1 [No. 2, (6S,7S)-7-[(Z)-2-(2-Aminothiazol-4-yl)-2-(1,5-dihydroxy-4-pyridone-2-ylmethoxyimino)acetamide]-3-(1,3,4-thiadiazol-5-yl)thiomethyl-isocephem-4-carboxylic acid] | ≤ 0.006 |  | 0.024 (≈ 0.0376 µM) | 0.05 (≈ 0.0783 µM) | 0.05 (≈ 0.0783 µM) | 0.05 (≈ 0.0783 µM) | 0.1 (≈ 0.157 µM) | 
2 | 0.78 (≈ 1.07 µM) | 0.024 (≈ 0.0329 µM) | CC(C)(O/N=C(\C(=O)N[C@@H]1C(=O)N2C(C(=O)[O-])=C(CSc3cc[n+](CC(=O)c4ccc(O)c(O)c4)cc3)SC[C@H]12)c1csc(N)n1)C(=O)O [No. 3, (6S,7S)-7-[(Z)-2-(2-aminothiazol-4-yl)-2-(1-carboxy-1-methylethoxy)iminoacetamide]-3-{[1-[2-(3,4-dihydroxyphenyl)-2-oxo]ethyl]-4-pyridinio}thiomethylisocephem-4-carboxylate] | ≤ 0.006 |  | ≤ 0.006 | 0.024 (≈ 0.0329 µM) | 0.05 (≈ 0.0686 µM) | 0.05 (≈ 0.0686 µM) | 0.1 (≈ 0.137 µM) | 
3 | 100 (≈ 147 µM) | 0.024 (≈ 0.0353 µM) | Nc1nc(/C(=N/OCc2cc(=O)c(O)cn2O)C(=O)N[C@@H]2C(=O)N3C(C(=O)O)=C(CSc4nnnn4CC(=O)O)SC[C@H]23)cs1 [No. 9, (6S,7S)-7-[(Z)-2-(2-aminothiazol-4-yl)-2-(1,5-dihydroxy-4-pyridone-2-ylmethoxyimino)acetamide]-3-(1-carboxymethyl-1H-tetrazole-5-ylthiomethyl)isocephem-4-carboxylic acid] | ≤ 0.006 |  | 0.012 (≈ 0.0176 µM) | 0.012 (≈ 0.0176 µM) | 0.05 (≈ 0.0735 µM) | 0.05 (≈ 0.0735 µM) | 0.012 (≈ 0.0176 µM) | 
4 | 50 (≈ 76.5 µM) | 0.05 (≈ 0.0765 µM) | Nc1nc(/C(=N/OCc2cc(=O)c(O)cn2O)C(=O)N[C@@H]2C(=O)N3C(C(=O)O)=C(CSc4nnc(N)s4)SC[C@H]23)cs1 [No. 10, (6S,7S)-7-[(Z)-2-(2-aminothiazol-4-yl)-2-(1,5-dihydroxy-4-pyridone-2-ylmethoxyimino)acetamide]-3-(2-amino-1,3,4-thiadiazol-5-ylthiomethyl)isocephem-4-carboxylic acid] | 0.05 (≈ 0.0765 µM) |  | 0.05 (≈ 0.0765 µM) | 0.05 (≈ 0.0765 µM) | 0.2 (≈ 0.306 µM) | 0.1 (≈ 0.153 µM) | 0.78 (≈ 1.19 µM) | 
5 | 50 (≈ 75 µM) | 0.024 (≈ 0.036 µM) | Nc1nc(/C(=N/OCc2cc(=O)c(O)cn2O)C(=O)N[C@@H]2C(=O)N3C(C(=O)O)=C(CSc4nnnn4CCO)SC[C@H]23)cs1 [No. 11, (6S,7S)-7-[(Z)-2-(2-aminothiazol-4-yl)-2-(1,5-dihydroxy-4-pyridone-2-ylmethoxyimino)acetamide]-3-[1-(2-hydroxyethyl)-1H-tetrazole-5-ylthiomethyl]isocephem-4-carboxylic acid] | 0.012 (≈ 0.018 µM) |  | 0.05 (≈ 0.075 µM) | 0.012 (≈ 0.018 µM) | 0.05 (≈ 0.075 µM) | 0.05 (≈ 0.075 µM) | 0.2 (≈ 0.3 µM) | 
6 | 12.5 (≈ 18.1 µM) | 0.1 (≈ 0.145 µM) | Nc1nc(/C(=N/OCc2cc(=O)c(O)cn2O)C(=O)N[C@@H]2C(=O)N3C(C(=O)[O-])=C(CSc4cc[n+](CC(=O)O)cc4)SC[C@H]23)cs1 [No. 12, (6S,7S)-7-[(Z)-2-(2-aminothiazol-4-yl)-2-(1,5-dihydroxy-4-pyridone-2-ylmethoxyimino)acetamide]-3-[(1-carboxymethyl-4-pyridinio)thiomethyl]isocephem-4-carboxylate] | ≤ 0.006 |  | 0.012 (≈ 0.0174 µM) | 0.05 (≈ 0.0725 µM) | 0.2 (≈ 0.29 µM) | 0.1 (≈ 0.145 µM) | 0.39 (≈ 0.565 µM) | 

Row | SMILES | MIC (S. aureaus FDA-209P; [1]) [mg/L] | MIC (M. moganii IIDkono; [2]) [mg/L] | MIC (K. pneumoniae NCTC-9632) [mg/L] | MIC (M. moganii IIDkono) [mg/L] | MIC (E. coli No. 29) [mg/L] | MIC (S. marcescens IFO 12648) [mg/L] | MIC (P. aeruginosa E-2) [mg/L] | MIC (P. aeruginosa ATCC-10145) [mg/L] | MIC (A. calcoaceticus Ac-54) [mg/L] | MIC (S. aureaus FDA-209P) [mg/L]
7 | Cc1nnc(SCC2=C(C(=O)O)N3C(=O)[C@@H](NC(=O)/C(=N\OCc4cc(=O)c(O)cn4O)c4csc(N)n4)[C@H]3CS2)s1 [No. 1, (6S,7S)-7-[(Z)-2-(2-Aminothiazol-4-yl)-2-(1,5-dihydroxy-4-pyridone-2-ylmethoxyimino)acetamide]-3-(2-methyl-1,3,4-thiadiazol-5-yl)thiomethyl-isocephem-4-carboxylic acid] | 25 (≈ 38.3 µM) |  | 0.012 (≈ 0.0184 µM) | 0.05 (≈ 0.0766 µM) | 0.024 (≈ 0.0368 µM) | 0.024 (≈ 0.0368 µM) | 0.2 (≈ 0.306 µM) | 0.1 (≈ 0.153 µM) | 0.1 (≈ 0.153 µM) | 
8 | CC(C)(O/N=C(\C(=O)N[C@@H]1C(=O)N2C(C(=O)[O-])=C(CSc3cc[n+](CC(=O)NNC(=O)c4ccc(O)c(O)c4)cc3)SC[C@H]12)c1csc(N)n1)C(=O)O [No. 4] |  | 0.024 (≈ 0.0305 µM) | ≤ 0.006 |  | 0.012 (≈ 0.0153 µM) | 0.024 (≈ 0.0305 µM) | 0.1 (≈ 0.127 µM) | 0.1 (≈ 0.127 µM) | 0.2 (≈ 0.254 µM) | 3.13 (≈ 3.98 µM)
9 | Cc1nnc(SCC2=C(C(=O)O)N3C(=O)[C@@H](NC(=O)/C(=N\OCc4ccc(O)c(O)c4)c4csc(N)n4)[C@H]3CS2)s1 [No. 5, (6S,7S)-7-[(Z)-2-(2-aminothiazol-4-yl)-2-(3,4-dihydroxyphenylmethoxyimino)]acetamide-3-(2-methyl-1,3,4-thiadiazol-5-ylthiomethyl)isocephem-4-carboxylic acid] |  | 0.05 (≈ 0.0786 µM) | 0.012 (≈ 0.0189 µM) |  | 0.012 (≈ 0.0189 µM) | 0.05 (≈ 0.0786 µM) | 0.39 (≈ 0.613 µM) | 0.39 (≈ 0.613 µM) | 0.39 (≈ 0.613 µM) | 1.56 (≈ 2.45 µM)
10 | Cc1nnc(SCC2=C(C(=O)O)N3C(=O)[C@@H](NC(=O)/C(=N\OC(C(=O)O)c4ccc(O)c(O)c4)c4csc(N)n4)[C@H]3CS2)s1 (stereo partly drawn) [No. 6, (6S,7S)-7-{(Z)-2-(2-aminothiazol-4-yl)-2-[carboxy(3,4-dihydroxyphenol)methoxyimino]}acetamide-3-(2-methyl-1,3,4-thiadiazol-5-ylthiomethyl)isocephem-4-carboxylic acid] |  | 0.024 (≈ 0.0353 µM) | ≤ 0.006 |  | 0.012 (≈ 0.0177 µM) | 0.012 (≈ 0.0177 µM) | 0.39 (≈ 0.574 µM) | 0.2 (≈ 0.294 µM) | 0.2 (≈ 0.294 µM) | 3.13 (≈ 4.6 µM)
11 | CC(C)(O/N=C(\C(=O)N[C@@H]1C(=O)N2C(C(=O)[O-])=C(CSc3cc[n+](Cc4cc(=O)c(O)c[nH]4)cc3)SC[C@H]12)c1csc(N)n1)C(=O)O [No. 7, (6S,7S)-7-[(Z)-2-(2-aminothiazol-4-yl)-2-(1-carboxy-1-methylethoxy)imino]acetamide-3-[(5-hydroxy-4-pyridone-2-yl)methyl-4-pyridinio]thiomethylisocephem-4-carboxylate] |  | 0.024 (≈ 0.0342 µM) | 0.012 (≈ 0.0171 µM) |  | 0.012 (≈ 0.0171 µM) | 0.012 (≈ 0.0171 µM) | 0.1 (≈ 0.142 µM) | 0.1 (≈ 0.142 µM) | 0.2 (≈ 0.285 µM) | 3.13 (≈ 4.46 µM)
12 | Nc1nc(/C(=N/OCC(=O)O)C(=O)N[C@@H]2C(=O)N3C(C(=O)[O-])=C(CSc4cc[n+](CC(=O)c5ccc(O)c(O)c5)cc4)OC[C@H]23)cs1 [No. 8, (6S,7S)-7-[(Z)-2-(2-aminothiazol-4-yl)-2-(1-carboxymethoxy)iminoacetamide]-3 {[1-[2-(3,4-dihydroxyphenyl)-2-oxo]ethyl]-4-pyridinio}thiomethyl-Δ^3 -O-2-isocephem-4-carboxylate] |  | 0.024 (≈ 0.0351 µM) | ≤ 0.006 |  | ≤ 0.006 | 0.024 (≈ 0.0351 µM) | 0.1 (≈ 0.146 µM) | 0.05 (≈ 0.073 µM) | 0.05 (≈ 0.073 µM) | 1.56 (≈ 2.28 µM)
